Laboratory results from patent US9394261B2, “Aryl amine substituted pyrimidine and quinazoline and their use as anticancer drugs” (National Yang-Ming University, priority 2012, dated 2016).
Entries after “also recorded” stand apart in the source; their conditions may differ.

How the values were obtained:
[1] = tumor-bearing mice, p.o. daily for 3 weeks; erlotinib 50 mg/kg/day, compounds 8 and 19 20 mg/kg/day
[2] = tested on: PLC5 xenograft tumor; experiment: PLC5 xenograft tumor growth in nude mice; details: erlotinib 50 mg/kg/day; for tumor inhibition, PLC5 cell: p.o. daily, after 21 days of treatment, compounds 8 and 19 20 mg/kg/day
Procedure: (§5) The mice were housed in groups and maintained under standard laboratory conditions on a 12-hour light-dark cycle. They were given access to sterilized food and water ad libitum. All experimental procedures using these mice were performed in accordance with protocols approved by the Institutional Laboratory Animal Care and Use Committee of National Taiwan University. Each mouse was inoculated s.c. in the dorsal flank with 1×10^6 HCC cells suspended in 0.1 ml of serum-free medium containing 50% Matrigel (BD Biosciences, Bedford, Mass.). […] Controls received vehicle.
(§6) Tumor growth data points are reported as mean tumor volume±SE.

[3] = tested on: Huh-7 xenograft tumor; experiment: Huh-7 xenograft tumor growth in nude mice; details: erlotinib 50 mg/kg/day; for effect on Huh-7 tumor growth, in words: p.o. daily for 3 weeks, compounds 20 mg/kg/day (FIG. 7A-7B); for tumor inhibition, Huh7 cell: p.o. daily, after 21 days of treatment, compounds 8 and 19 20 mg/kg/day
Procedure: as §5, §6

[4] = target: T1, EGFR (Homo sapiens, UniProt P00533, DEL746-750); experiment: western blot of EGFR phosphorylation in PC9 cells; assay type: cell-based; details: PC9 cells, 2 μM, 24 h (FIG. 3A)
T1 construct: endogenous in cells; host or cells: PC9 cells
Procedure: 40 μg/per lane of cell lysates were analyzed by western blot. The antibodies of actin, EGFR, and p-EGFR were from Cell Signaling (Danvers, Mass.). In FIGS. 1A-1B, actin lines are used to show an internal standard for the loading control in this western blot.

[5] = tested on: SK-Hep-1 cell lines (a hepatocellular carcinoma (HCC) cell); experiment: MTT assay, growth inhibition of SK-Hep-1 cells; assay type: cell-based; details: SK-Hep-1 cells, 48 hours
Procedure: MTT assay was used to measure growth inhibition. […] MTT (3-(4,5-dimethylthiazol-2-yl)-2,5-diphenyl tetrazolium bromide) assay was performed as follow.
(§1) The effect of individual test compounds on cell viability was assessed by using the MTT in 6 replicates. Sk-Hep-1 cells were seeded and incubated in 96-well, flat-bottomed plates for 24 hours, and were exposed to various concentrations of test compounds dissolved in DMSO (final concentration, 0.1%) for 48 hours. Controls received DMSO vehicle at a concentration equal to that in drug-treated cells. The medium was removed, replaced by 200 μL of 0.5 mg/mL MTT in 10% fetal bovine serum containing DMEM (Dulbecco's Modified Eagle Medium), and cells were incubated in the carbon dioxide incubator at 37° C. for 2 hours. Supernatants were removed from the wells and the reduced MTT dye was solubilized in 100 μL/well DMSO. Absorbance at 570 nm was determined on a plate reader.
The SK-Hep1 cells were then analyzed with western blot assay and MTT assay.

[6] = tested on: Hep3B cell lines; experiment: MTT assay, growth inhibition of Hep3B cells; assay type: cell-based; details: Homo sapiens
Procedure: as §1
Next, compounds 19, and 34-36 were screened against a panel of Hep3B cell lines for growth-inhibitory activities. […] Compounds 87-90, 95 and 96 were screened against a panel of PLC5 cell lines for growth-inhibitory activities.

[7] = tested on: CIP2A; experiment: western blot of CIP2A expression in SK-Hep1 cells; assay type: cell-based; details: SK-Hep-1 cells
Procedure: Accordingly, the pyrimidine and quinazoline derivatives above were screened by using western blot analysis for expression of CIP2A in SK-Hep1 cells. Before the western blot analysis, the SK-Hep-1 cells were maintained in DMEM supplemented with 10% FBS, 100 units/mL penicillin G, 100 μg/mL streptomycin sulfate and 25 μg/mL amphotericin B in a 37° C. humidified incubator in an atmosphere of 5% CO2 in air. In this western blot analysis, SK-Hep1 cells were respectively treated with compounds 1-24 at a concentration of 20 μM for 24 hours. In FIG. 2, the mono-substituted pyrimidine derivatives (compounds 1-5) have no appreciable change in CIP2A expression.
Cell viability, measured by MTT assay, and CIP2A expressions, analyzed by western blot, in response to compound 19 or erlotinib treatment in SK-Hep1 cell line were analyzed. SK-Hep-1 cells were treated with erlotinib and compound 19 at 2.5 and 5 μM for 24 h, respectively. The SK-Hep1 cells were then analyzed with western blot assay and MTT assay.
(§2) Next, compounds […], 19, and 22 were used to explore whether downregulation of CIP2A lead to suppression of p-Akt. FIG. 4A is the western blot analysis of the effect of the compounds 4, 19, and 22 on phosphorylation of Akt, PARP and Actin. In this western blot analysis, SK-Hep-1 cells were respectively treated with compounds 4, 19, and 22 at a concentration of 5 μM for 30 hours. […] That is, compound 19 and 22 can substantially increase apoptotic cell death to inhibit cancer growth.

[8] = tested on: CIP2A; experiment: western blot of CIP2A expression in H358, H460 and H322 lung cancer cells; assay type: cell-based; details: 5 μM (FIG. 3C)
Procedure: (§3) Similarly, CIP2A expressions analyzed by western blot were also performed for lung cancer cells, H358, H460, and H322 cell lines. Moreover, drug-induced apoptotic cell death was also assessed by western blot analysis of activated caspases cleaved poly(ADP-ribose)polymerase (PARP). The cleavage of PARP is explained as follow. The compound induces apoptotic signal which cleave the procaspase 3 to the active caspase 3. The activation of caspase 3 further cleaves PARP and inactivate PAPR function. The events are thought to be required in late apoptosis. Therefore, the PARP cleavage is an indicator of apoptosis.
(§4) In the PARP row of FIG. 3C, the upper bands represented the uncleavage PARP, and the middle band and lower band represented cleavage PARP.

[9] = tested on: PARP; experiment: western blot of PARP cleavage in H358, H460 and H322 lung cancer cells; assay type: cell-based; details: 5 μM (FIG. 3C)
Procedure: as §3, §4

[10] = tested on: p-Akt; experiment: western blot of p-Akt in SK-Hep-1 cells; assay type: cell-based; details: SK-Hep-1 cells, 5 μM, 30 hours (FIG. 4A)
Procedure: as §2
In other words, in the present of okadaic acid, the activation of PP2A by compound 19-incuced CIP2A inactivation is blocked.

[11] = tested on: PARP; experiment: western blot of PARP cleavage in SK-Hep-1 cells; assay type: cell-based; details: 5 μM, 30 hours (FIG. 4A)
Procedure: as §2

[12] = tested on: SK-Hep-1 cells; experiment: apoptotic cell death by flow cytometry (sub-G1) and cell death detection ELISA; assay type: cell-based; details: 2.5 and 5 μM, 24 h (FIG. 4B-4C)
Procedure: FIG. 4B is flow cytometry analysis of cell death induced by compounds 4, 19, and 22 at 5 μM, after 24 h of treatment in SK-Hep-1 cells. The apoptotic cells were assessed by flow cytometry (sub-G1). After Sk-Hep-1 cells were treated with compounds 4, 19, and 22, Sk-Hep-1 cells were trypsinized, collected by centrifugation and resuspended in PBS. After centrifugation, the cells were washed in PBS and resuspended in […] (PI) staining solution. Specimens were incubated in the dark for 30 min at 37° C. and then analyzed with an EPICS Profile II flow cytometer (Coulter Corp., Hialeah, Fla.). All experiments were performed in triplicate
FIG. 4C is ELISA analysis of cell death to analyze effects of compounds 4, 19, and 22 on DNA fragmentation in SK-Hep-1 cells. The effect of compounds 4, 19 and 22 on cell viability was assessed by a cell death detection ELISA kit (Roche Applied Science, Mannheim, Germany). SK-Hep-1 cells were treated with compounds 4 and 19 at 22 at 2.5 and 5 μM for 24 h. The cells were collected and assayed according to the standard protocol provided by the manufacturer.

[13] = tested on: SK-Hep-1 cell lines (a hepatocellular carcinoma (HCC) cell); experiment: MTT assay, growth inhibition of SK-Hep-1 cells; assay type: cell-based; details: 2.5 and 5 μM, 24 h (FIG. 3B)

T1 sequence (P00533 with tags, fused parts or gaps DEL746-750): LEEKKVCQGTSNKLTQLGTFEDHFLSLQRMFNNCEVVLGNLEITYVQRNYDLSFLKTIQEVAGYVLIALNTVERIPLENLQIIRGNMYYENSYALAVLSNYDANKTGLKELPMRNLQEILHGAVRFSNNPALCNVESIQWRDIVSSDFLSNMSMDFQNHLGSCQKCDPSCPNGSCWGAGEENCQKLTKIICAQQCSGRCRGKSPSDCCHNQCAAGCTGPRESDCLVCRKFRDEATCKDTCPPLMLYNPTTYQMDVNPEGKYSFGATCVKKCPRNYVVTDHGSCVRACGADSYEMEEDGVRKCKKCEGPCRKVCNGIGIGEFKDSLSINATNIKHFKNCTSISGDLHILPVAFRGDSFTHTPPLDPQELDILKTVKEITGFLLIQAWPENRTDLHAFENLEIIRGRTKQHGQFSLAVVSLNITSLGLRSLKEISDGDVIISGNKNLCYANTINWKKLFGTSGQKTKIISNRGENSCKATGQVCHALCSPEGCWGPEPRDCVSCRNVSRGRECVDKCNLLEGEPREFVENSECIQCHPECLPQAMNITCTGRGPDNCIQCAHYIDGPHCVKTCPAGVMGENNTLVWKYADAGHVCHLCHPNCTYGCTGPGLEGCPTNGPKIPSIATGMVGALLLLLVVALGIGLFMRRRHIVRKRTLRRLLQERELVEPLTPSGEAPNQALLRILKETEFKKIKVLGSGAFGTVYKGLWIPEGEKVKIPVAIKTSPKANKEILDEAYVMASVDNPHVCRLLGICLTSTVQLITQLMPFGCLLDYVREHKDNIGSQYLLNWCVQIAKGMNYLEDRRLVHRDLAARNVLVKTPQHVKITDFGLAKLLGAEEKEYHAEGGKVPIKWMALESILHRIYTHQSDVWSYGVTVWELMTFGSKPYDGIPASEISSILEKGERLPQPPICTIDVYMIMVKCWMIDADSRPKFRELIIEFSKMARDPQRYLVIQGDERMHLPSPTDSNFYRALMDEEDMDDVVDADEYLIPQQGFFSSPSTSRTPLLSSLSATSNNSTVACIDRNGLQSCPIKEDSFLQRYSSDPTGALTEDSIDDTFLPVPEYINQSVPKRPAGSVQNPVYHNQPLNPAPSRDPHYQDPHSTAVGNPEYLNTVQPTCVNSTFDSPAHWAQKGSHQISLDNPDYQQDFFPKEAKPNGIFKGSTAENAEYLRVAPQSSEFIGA

EGFR phosphorylation inhibition (western blot) [4] | IC50 [5] [nM] | IC50 [6] [nM] | SMILES | tolerability (signs of toxicity, body weight, necropsy) [1] | tumor inhibition, PLC5 cell [2] [%] | effect on Huh-7 tumor growth, in words [3] | tumor inhibition, Huh7 cell [3] [%] | inhibiting CIP2A expression ([7]; 5 μM, 30 hours (FIG. 4A)) | CIP2A expression ([7]; 2.5 and 5 μM, 24 h (FIG. 3B)) | CIP2A expression [8] | PARP cleavage [9] | p-Akt level [10] | PARP cleavage [11] | cell apoptosis (sub-G1 flow cytometry, DNA fragmentation ELISA) [12] | cell viability (MTT) [13] | effect on PLC5 tumor growth, in words ([2]; p.o. daily for 3 weeks, compounds 20 mg/kg/day (FIG. 6A-6B))
 |  |  | C#Cc1cccc(Nc2ncnc3cc(OCCOC)c(OCCOC)cc23)c1 [erlotinib, reference compound] | tolerated the treatments well without observable signs of toxicity | 50.0 | no effect on tumor growth | 8.8 |  |  |  |  |  |  |  |  | 
no inhibitory effect on EGFR kinase | 2800 | 1280 | C#Cc1cccc(Nc2nc(Nc3ccc(Oc4ccccc4)cc3)nc3cc(OC)c(OC)cc23)c1 [Compound 19, N^4-(3-Ethynylphenyl)-6,7-dimethoxy-N^2-(4-phenoxyphenyl)quinazoline-2,4-diamine] |  | 60.6 | better inhibitory effect on Huh-7 tumors than erlotinib | 34.8 | inhibiting CIP2A expression; also recorded: most potent inhibition of CIP2A expression | reduce the CIP2A expression | down-regulate the expression of CIP2A | induce the cleavage of PARP | reducing p-Akt level; also recorded: reduced Akt phosphorylation | inducing PARP cleavage | induced cell apoptosis | reduce the CIP2A expression and the cell viability in a dosage dependent manner | significantly reduced the growth of tumor; also recorded: better inhibitory effect on PLC5 tumors than erlotinib; also recorded: significantly reducing the growth of tumor
